We go through 20 compounds from patent US20150166523A1, “BRANCHED CHAIN ALKYL HETEROAROMATIC RING DERIVATIVE” (TAISHO PHARMACEUTICAL CO., LTD., priority 2012, published 2015).

Molecules are shown by their SMILES.

For test [1], the target named is T1, human orexin-1 receptor (hOX1R) (Homo sapiens, UniProt O43613).
T1 construct: expressed in transfected cells; host or cells: Chinese hamster ovary (CHO) cells
T1 sequence (O43613 1-425): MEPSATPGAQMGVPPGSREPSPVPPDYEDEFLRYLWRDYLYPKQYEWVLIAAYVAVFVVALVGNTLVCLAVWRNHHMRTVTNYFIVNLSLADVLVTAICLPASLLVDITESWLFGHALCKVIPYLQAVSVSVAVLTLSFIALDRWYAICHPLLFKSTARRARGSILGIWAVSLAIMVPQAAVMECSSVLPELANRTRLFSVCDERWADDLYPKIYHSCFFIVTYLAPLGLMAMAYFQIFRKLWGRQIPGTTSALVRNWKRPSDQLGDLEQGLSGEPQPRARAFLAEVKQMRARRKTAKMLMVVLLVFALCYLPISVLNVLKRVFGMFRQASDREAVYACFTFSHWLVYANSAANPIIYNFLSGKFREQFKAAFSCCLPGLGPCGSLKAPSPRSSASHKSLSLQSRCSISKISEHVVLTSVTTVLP
The experiment in a line: Measurement of orexin antagonistic activity (intracellular Ca2+ fluorescence, FDSS) on hOX1R. In kind it is cell-based. The conditions noted are these: CHO cells forcibly expressing hOX1R; Fluo-4AM; ligand peptide (substituted human orexin-A) 300 pM; compound preincubated 30 minutes; read-out: IC50 Value OX1. In outline: (§1)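 CHO cells stably expressing hOX1R or hOX2R, loaded with 0.5 μM Fluo-4AM in HEPES/HBSS buffer with 0.1% BSA and 2.5 mM probenecid, pH 7.4, then preincubated 30 min with compound. Fluorescence recorded each second for 3 min by FDSS; maximum intensity taken as intracellular Ca2+ indicator of antagonism.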

Test [2] addresses T2, orexin-2 receptor (hOX2R) (Homo sapiens, UniProt O43614).
T2 construct: expressed in transfected cells; host or cells: Chinese hamster ovary (CHO) cells
T2 sequence (O43614 1-444): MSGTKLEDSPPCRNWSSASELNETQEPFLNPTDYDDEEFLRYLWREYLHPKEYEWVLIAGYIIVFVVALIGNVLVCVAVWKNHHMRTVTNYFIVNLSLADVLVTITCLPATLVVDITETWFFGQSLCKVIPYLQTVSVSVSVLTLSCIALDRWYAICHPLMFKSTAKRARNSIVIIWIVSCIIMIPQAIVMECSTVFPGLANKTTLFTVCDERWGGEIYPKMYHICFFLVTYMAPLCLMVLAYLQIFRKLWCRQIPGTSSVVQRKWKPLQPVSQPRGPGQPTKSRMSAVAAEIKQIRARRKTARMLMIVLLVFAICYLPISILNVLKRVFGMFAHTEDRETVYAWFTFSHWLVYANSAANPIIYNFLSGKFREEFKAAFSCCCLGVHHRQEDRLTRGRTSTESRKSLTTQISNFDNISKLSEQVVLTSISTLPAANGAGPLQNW
The experiment in a line: Measurement of orexin antagonistic activity (intracellular Ca2+ fluorescence, FDSS) on hOX2R. In kind it is cell-based. The conditions noted are these: CHO cells forcibly expressing hOX2R; Fluo-4AM; ligand peptide (substituted human orexin-A) 3 nM; compound preincubated 30 minutes; read-out: IC50 Value OX2. Put shortly: as §1

A word on the IC50: it is the midpoint of a concentration-inhibition curve.

For `CCN(C(=O)c1cc(F)ccc1-n1nccn1)[C@@H](C)Cc1noc(-c2ccc(F)cc2)n1` [Example 50, N-Ethyl-5-fluoro-N-{(2S)-1-[5-(4-fluorophenyl)-1,2,4-oxadiazol-3-yl]propan-2-yl}-2-(2H-1,2,3-triazol-2-yl) benzamide], the IC50 was found to be 0.8 nM in test [1] and 16.8 nM in test [2].

`C[C@@H](Cn1cc(-c2ccc(F)c(F)c2)cn1)N(C)C(=O)c1cc(F)ccc1-c1ncccn1` [Example 33, N-{(2S)-1-[4-(3,4-Difluorophenyl)-1H-pyrazol-1-yl]propan-2-yl}-5-fluoro-N-methyl-2-(pyrimidin-2-yl)benzamide]: the IC50 is 11.9 nM in test [1] and 20.8 nM in test [2].

Turning to `CCN(C(=O)c1cc(C)ccc1-n1nccn1)[C@@H](C)Cn1cc(-c2cccc(OC)c2)nn1` [Example 101, N-Ethyl-N-{(2S)-1-[4-(3-methoxyphenyl)-1H-1,2,3-triazol-1-yl]propan-2-yl}-5-methyl-2-(2H-1,2,3-triazol-2-yl)benzamide], the IC50 was 0.9 nM in test [1] and 1.5 nM in test [2].

As to `Cc1ccc(-n2nccn2)c(C(=O)N(C)[C@@H](C)Cc2noc(-c3ccc(F)cn3)n2)c1` [Example 45, N-{(2S)-1-[5-(5-Fluoropyridin-2-yl)-1,2,4-oxadiazol-3-yl]propan-2-yl}-N,5-dimethyl-2-(2H-1,2,3-triazol-2-yl)benzamide], the IC50 in test [1] is 3.3 nM; in test [2] it was 75.5 nM.

Take `Cc1ccc(-n2nccn2)c(C(=O)N(C)[C@H](Cn2ccc(-c3ccc(F)cn3)n2)C(C)C)c1` [Example 23, N-{(2S)-1-[3-(5-Fluoropyridin-2-yl)-1H-pyrazol-1-yl]-3-methylbutan-2-yl}-N,5-dimethyl-2-(2H-1,2,3-triazol-2-yl) benzamide]: the IC50 amounted to 134 nM in test [1] and 1890 nM in test [2].

Regarding `CCN(C(=O)c1cc(C)ccc1-n1nccn1)[C@@H](C)Cn1cc(-c2ccc(F)cn2)cn1` [Example 25, N-Ethyl-N-{(2S)-1-[4-(5-fluoropyridin-2-yl)-1H-pyrazol-1-yl]propan-2-yl}5-methyl-2-(2H-1,2,3-triazol-2-yl) benzamide], the results for the IC50 in test [1] and in test [2] were 0.7 nM and 6.4 nM, respectively.

Regarding `CCN(C(=O)c1cc(C)ccc1-c1ncccn1)[C@@H](C)Cn1cc(-c2ccc(F)cn2)nn1` [Example 79, N-Ethyl-N-{(2S)-1-[4-(5-fluoropyridin-2-yl)-1H-1,2,3-triazol-1-yl]propan-2-y}-5-methyl-2-(pyrimidin-2-yl)benzamide], the IC50 in test [1] worked out at 63.6 nM; in test [2], 427 nM.

Regarding `Cc1ccc(-n2nccn2)c(C(=O)N(CCO)[C@@H](C)Cn2cc(-c3ccc(F)cn3)cn2)c1` [Example 41, N-{(2S)-1-[4-(5-Fluoropyridin-2-yl)-1H-pyrazol-1-yl]propan-2-yl}-N-(2-hydroxyethyl)-5-methyl-2-(2H-1,2,3-triazol-2-yl)benzamide], the IC50 in test [1] was determined as 30.9 nM; in test [2] it was 86.3 nM.

In the case of `CCN(C(=O)c1ccccc1-n1nccn1)[C@@H](C)Cn1ccc(-c2ccc(F)cn2)n1` [Example 18, N-Ethyl-N-{(2S)-1-[3-(5-fluoropyridin-2-yl)-1H-pyrazol-1-yl]propan-2-yl}-2-(2H-1,2,3-triazol-2-yl)benzamide], the half-maximal inhibitory concentration (IC50) in test [1] was determined as 0.7 nM; in test [2], 7.7 nM.

With `CCN(C(=O)c1cc(C)ccc1-n1nccn1)[C@@H](C)Cn1nnc(-c2ccc(F)cc2)n1` [Example 62, N-Ethyl-N-{(2S)-1-[5-(4-fluorophenyl)-2H-tetrazol-2-yl]propan-2-yl}-5-methyl-2-(2H-1,2,3-triazol-2-yl)benzamide], the IC50 in test [1] came out at 0.7 nM; in test [2] it was 2.3 nM.

With `C[C@@H](Cn1cc(-c2ccc(F)cc2)cn1)N(C)C(=O)c1cc(F)ccc1-c1ncccn1` [Example 32, 5-Fluoro-N-{(2S)-1-[4-(4-fluorophenyl)-1H-pyrazol-1-yl]propan-2-yl}-N-methyl-2-(pyrimidin-2-yl)benzamide], the IC50 in test [1] worked out at 20.7 nM; in test [2], 96.9 nM.

`Cc1ccc(-n2nccn2)c(C(=O)N(C)[C@@H](C)Cn2cc(-c3ccc(F)cc3)cn2)n1` [Example 28, N-{(2S)-1-[4-(4-Fluorophenyl)-1H-pyrazol-1-yl]propan-2-yl}-N,6-dimethyl-3-(2H-1,2,3-triazol-2-yl)pyridine-2-carboxamide]: the IC50 in test [1] stood at 18.6 nM; in test [2], 89.3 nM.

Regarding `CCN(C(=O)c1ccccc1-c1ncccn1)[C@@H](C)Cn1ccc(-c2ccc(F)cn2)n1` [Example 7, N-Ethyl-N-{(2S)-1-[3-(5-fluoropyridin-2-yl)-1H-pyrazol-1-yl]propan-2-yl}-2-(pyrirnidin-2-yl) benzamide], the IC50 worked out at 6.8 nM in test [1] and 43.1 nM in test [2].

As for `Cc1ccc(-n2nccn2)c(C(=O)N(CCN(C)C)[C@@H](C)Cn2cc(-c3ccc(F)cc3)nn2)c1` [Example 89, N-[2-(Dimethylamino)ethyl]-N-{(2S)-1-[4-(4-fluorophenyl)-1H-1,2,3-triazol-1-yl]propan-2-yl}-5-methyl-2-(2H-1,2,3-triazol-2-yl)benzamide], the IC50 stood at 229 nM in test [1] and 6930 nM in test [2].

Consider `CCN(C(=O)c1nc(C)ccc1-c1ncccn1)[C@@H](C)Cn1ccc(-c2ccc(F)cc2)n1` [Example 15, N-Ethyl-N-[(2S)-1-[3-(4-fluorophenyl)-1H-pyrazol-1-yl]propan-2-yl}-6-methyl-3-(pyrimidin-2-yl)pyridine-2-carboxamide], for which the results for the IC50 in test [1] and in test [2] were 1.2 nM and 18 nM, respectively.

For `CCN(C(=O)c1cc(C)ccc1-c1ncccn1)[C@@H](C)Cc1noc(-c2ccc(F)cn2)n1` [Example 48, N-Ethyl-N-{(2S)-1-[5-(5-fluoropyridin-2-yl)-1,2,4-oxadiazol-3-yl]propan-2-yl}-5-methyl-2-(pyrimidin-2-yl)benzamide], the IC50 in test [1] came to 0.9 nM; in test [2] it was 28.2 nM.

As for `CCN(C(=O)c1cc(F)ccc1-c1ncccn1)[C@@H](C)Cn1ccc(-c2ccc(F)c(F)c2)n1` [Example 17, N-{(2S)-1-[3-(3,4-Difluorophenyl)-1H-pyrazol-1-yl]propan-2-yl}-N-ethyl-5-fluoro-2-(pyrimidin-2-yl)benzamide], the IC50 in test [1] was determined as 2.1 nM; in test [2] it was 10.1 nM.

On to `CCN(C(=O)c1cc(C)ccc1-n1nccn1)[C@@H](C)Cn1cc(-c2cccc(C)c2)nn1` [Example 97, N-Ethyl-5-methyl-N-{(2S)-1-[4-(3-methylphenyl)-1H-1,2,3-triazol-1-yl]propan-2-yl}-2-(2H-1,2,3-triazol-2-yl) benzamide], for which the IC50 in test [1] came to 2.4 nM; in test [2], 21.3 nM.

With `COCCN(C(=O)c1cc(C)ccc1-n1nccn1)[C@@H](C)Cn1cc(-c2ccc(F)cc2)nn1` [Example 72, N-{(2S)-1-[4-(4-Fluorophenyl)-1H-1,2,3-triazol-1-yl]propan-2-yl}-N-(2-methoxyethyl)-5-methyl-2-(2H-1,2,3-triazol-2-yl)benzamide], the IC50 worked out at 102 nM in test [1] and 401 nM in test [2].

With `CCN(C(=O)c1cc(C)ccc1-c1ncccn1)[C@@H](C)Cn1cc(-c2ccc(F)cn2)cn1` [Example 35, N-Ethyl-N-{(2S)-1-[4-(5-fluoropyridin-2-yl)-1H-pyrazol-1-yl]propan-2-yl}-5-methyl-2-(pyrimidin-2-yl)benzamide], the IC50 in test [1] worked out at 3.4 nM; in test [2], 62.8 nM.
